Reference: patent US7087375B1, “Method for determining the mechanism of HIV RT inhibitors” (priority 2000, dated 2006)
Where “and” joins values, the source holds several entries; their conditions need not be identical. Equal values may be shown once. Read-outs that look alike come from different tables or passages of the source.

What was measured:
Type in all cases: biochemical
[1] = molecular target: T1, HIV-1 RT wild type (HXB2) (Human immunodeficiency virus type 1 group M subtype B, UniProt P04585)
T1 construct: The final RT products, in a heterodimeric form (p66/p51); made in house; host or cells: E. coli XL1-Blue (vector pKK233-2)

HIV-1 RT mutant 41/215 = HIV-1 RT mutant 41/215 (Human immunodeficiency virus type 1 group M subtype B, UniProt P04585, M628L/T802Y); assay: RT inhibition assay (Lenti RT, polyrA/oligo(dT), BrdUTP); details: 41/215 RT, AZT-TP assay
[2] = molecular target: T2, HIV-1 RT mutant 41/184/215 (Human immunodeficiency virus type 1 group M subtype B, UniProt P04585, M628L/M771V/T802Y); details: 41/184/215 RT, AZT-TP assay, read-out: Km (BrdUTP)
T2 construct: The final RT products, in a heterodimeric form (p66/p51); made in house; host or cells: E. coli XL1-Blue (vector pKK233-2)

[3] = molecular target: T3, HIV-1 RT mutant 41/67/70/215 (Human immunodeficiency virus type 1 group M subtype B, UniProt P04585, D654N/K657R/M628L/T802Y); details: 41/67/70/215 RT
T3 construct: The final RT products, in a heterodimeric form (p66/p51); made in house; host or cells: E. coli XL1-Blue (vector pKK233-2)

[4] = molecular target: T4, HIV-1 RT mutant 41/67/70/184/215 (Human immunodeficiency virus type 1 group M subtype B, UniProt P04585, D654N/K657R/M628L/M771V/T802Y); details: 41/67/70/184/215 RT
T4 construct: The final RT products, in a heterodimeric form (p66/p51); made in house; host or cells: E. coli XL1-Blue (vector pKK233-2)

[5] = molecular target: T5, HIV-1 RT mutant 41/67/70/184/210/211/214/215 (Human immunodeficiency virus type 1 group M subtype B, UniProt P04585, D654N/K657R/L797W/L801F/M628L/M771V/R798K/T802Y); details: 41/67/70/184/210/211/214/215 RT
T5 construct: The final RT products, in a heterodimeric form (p66/p51); made in house; host or cells: E. coli XL1-Blue (vector pKK233-2)

HIV-1 RT mutant 69S-SS = molecular target: T6, HIV-1 RT mutant 69S-SS (Human immunodeficiency virus type 1 group M subtype B, UniProt P04585, INS655SS/T656S); details: 69S-SS RT, AZT-TP assay, read-out: Km (BrdUTP)
T6 construct: The final RT products, in a heterodimeric form (p66/p51); made in house; host or cells: E. coli XL1-Blue (vector pKK233-2)

[6] = molecular target: T7, HIV-1 RT mutant 41/69S-SS/215 (Human immunodeficiency virus type 1 group M subtype B, UniProt P04585, INS655SS/M628L/T656S/T802Y); details: 41/69S-SS/215 RT, AZT-TP assay, read-out: Km (BrdUTP)
T7 construct: The final RT products, in a heterodimeric form (p66/p51); made in house; host or cells: E. coli XL1-Blue (vector pKK233-2)

HIV-1 RT mutant 69S-SG = molecular target: T8, HIV-1 RT mutant 69S-SG (Human immunodeficiency virus type 1 group M subtype B, UniProt P04585, INS655SS/T656G/T656S); details: 69S-SG RT
T8 construct: The final RT products, in a heterodimeric form (p66/p51); made in house; host or cells: E. coli XL1-Blue (vector pKK233-2)

HIV-1 RT mutant 69S-AG = molecular target: T9, HIV-1 RT mutant 69S-AG (Human immunodeficiency virus type 1 group M subtype B, UniProt P04585, INS655SA/T656G/T656S); details: 69S-AG RT
T9 construct: The final RT products, in a heterodimeric form (p66/p51); made in house; host or cells: E. coli XL1-Blue (vector pKK233-2)

HIV-1 RT mutant V75T = molecular target: T10, HIV-1 RT mutant V75T (Human immunodeficiency virus type 1 group M subtype B, UniProt P04585, V662T); details: d4T-TP assay
T10 construct: The final RT products, in a heterodimeric form (p66/p51); made in house

HIV-1 RT mutant Q151M = molecular target: T11, HIV-1 RT mutant Q151M (Human immunodeficiency virus type 1 group M subtype B, UniProt P04585, Q738M); details: d4T-TP assay
T11 construct: The final RT products, in a heterodimeric form (p66/p51); made in house

[7] = AZT-TP assay, ATP 3.2 mM, read-out: Km (BrdUTP)
[8] = d4T-TP assay, ATP 3.2 mM, read-out: Km
[9] = d4T-TP assay, without ATP, read-out: Km
[10] = AZT-TP assay, without ATP, read-out: Km (BrdUTP)

## bromo-deoxyuridine-triphosphate [BrdUTP]
[1]; read-out: Km (BrdUTP)
  Km: 0.31 µM and 0.17 µM
[1]; wild type HXB2 RT, AZT-TP assay, ATP 3.2 mM + PPi 150 μM, read-out: Km (BrdUTP)
  Km: 0.517 µM
[1]; wild type HXB2 RT, AZT-TP assay, ATP 6.0 mM, read-out: Km (BrdUTP)
  Km: 0.81 µM
[1]; wild type HXB2 RT, AZT-TP assay, ATP […], read-out: Km (BrdUTP)
  Km: 0.24 µM
[1]; wild type HXB2 RT, AZT-TP assay, GTP 0.5 mM, read-out: Km (BrdUTP)
  Km: 0.324 µM
[1]; wild type HXB2 RT, AZT-TP assay, PPi 150 μM, read-out: Km (BrdUTP)
  Km: 0.3 µM
[1]; wild type HXB2 RT, d4T-TP assay, ATP 3.2 mM, read-out: Km
  Km: 0.162 µM
[1]; wild type HXB2 RT, d4T-TP assay, without ATP, read-out: Km
  Km: 0.136 µM
HIV-1 RT mutant 41/215; ATP 3.2 mM
  Km: 0.36 µM
HIV-1 RT mutant 41/215; without ATP
  Km: 0.11 µM
[2]; ATP 3.2 mM
  Km: 0.14 µM
[2]; without ATP
  Km: 0.049 µM
[3]; AZT-TP assay, ATP 3.2 mM + PPi 150 μM, read-out: Km (BrdUTP)
  Km: 0.202 µM
[3]; [7]
  Km: 0.074 µM
[3]; AZT-TP assay, ATP 6.0 mM, read-out: Km (BrdUTP)
  Km: 0.225 µM
[3]; AZT-TP assay, ATP […], read-out: Km (BrdUTP)
  Km: 0.064 µM
[3]; AZT-TP assay, GTP 0.5 mM, read-out: Km (BrdUTP)
  Km: 0.117 µM
[3]; AZT-TP assay, PPi 150 μM, read-out: Km (BrdUTP)
  Km: 0.09 µM
[3]; AZT-TP assay, no extra additions (without ATP), read-out: Km (BrdUTP)
  Km: 0.01 µM
[3]; AZT-TP assay, nontreated pyrophosphatase ATP 3.2 mM (control), single experiment, read-out: Km (BrdUTP)
  Km: 0.044 µM
[3]; AZT-TP assay, pyrophosphatase treated ATP 3.2 mM, single experiment, read-out: Km (BrdUTP)
  Km: 0.037 µM
[3]; [8]
  Km: 0.126 µM
[3]; [9]
  Km: 0.08 µM
[4]; [7]
  Km: 0.38 µM
[4]; [10]
  Km: 0.06 µM
[4]; [8]
  Km: 0.152 µM
[4]; [9]
  Km: 0.075 µM
[5]; [7]
  Km: 0.58 µM
[5]; [10]
  Km: 0.12 µM
[5]; [8]
  Km: 0.249 µM
[5]; [9]
  Km: 0.216 µM
HIV-1 RT mutant 69S-SS; ATP 3.2 mM
  Km: 0.22 µM
HIV-1 RT mutant 69S-SS; without ATP
  Km: 0.066 µM
[6]; ATP 3.2 mM
  Km: 0.21 µM
[6]; without ATP
  Km: 0.045 µM
HIV-1 RT mutant 69S-SG; [7]
  Km: 0.36 µM
HIV-1 RT mutant 69S-SG; [10]
  Km: 0.1 µM
HIV-1 RT mutant 69S-SG; [8]
  Km: 0.228 µM
HIV-1 RT mutant 69S-SG; [9]
  Km: 0.239 µM
HIV-1 RT mutant 69S-AG; [7]
  Km: 0.28 µM
HIV-1 RT mutant 69S-AG; [10]
  Km: 0.1 µM
HIV-1 RT mutant 69S-AG; [8]
  Km: 0.126 µM
HIV-1 RT mutant 69S-AG; [9]
  Km: 0.117 µM
HIV-1 RT mutant V75T; ATP 3.2 mM
  Km: 0.165 µM
HIV-1 RT mutant V75T; without ATP
  Km: 0.079 µM
HIV-1 RT mutant Q151M; ATP 3.2 mM
  Km: 0.174 µM
HIV-1 RT mutant Q151M; without ATP
  Km: 0.117 µM
